# From patent US20220249413A1, “SWELL 1 MODULATORS FOR TREATMENT OF NON-ALCOHOLIC FATTY LIVER DISEASE, IMMUNE DEFICIENCIES, MALE INFERTILITY AND VASCULAR DISEASES” (priority 2019, published 2022)
# System: SWELL1 protein
# Assay: SWELL1 protein expression by Western blot in 3T3-F442A preadipocytes and adipocytes
# Type: cell-based
# Details: 10 μM applied for 96 hours
# Method: For Smod1 (DCPIB) mediated induction of SWELL1 and insulin signaling studies in 3T3-F442A preadipocytes, the cells were incubated with either vehicle (DMSO) or 10 μM Smod1 for 96 h. The cells were serum starved for 6 h (+DMSO or Smod1) and stimulated with 0, 3 and 10 nM insulin containing media (−DMSO or Smod1), as described above for 15 mins and the lysates were collected. In the case of 3T3-F442A adipocytes, the WT and KO cells were treated with either vehicle (DMSO) or 10 μM Smod1 following 7-11 days of differentiation for 96 h and then stimulated with 0 and 10 nM insulin for 15 min, as described above. Human embryonic kidney (HEK) cells were cultured and maintained in 90% DMEM (25 mM D-Glucose and 4 mM L-Glutamine) containing 10% fetal bovine serum (FBS) and 100 IU penicillin and 100 μg/ml streptomycin media.
# Electrophysiology Patch-clamp recordings of β-cells and mature adipocytes were performed as described previously (Zhang et al., Nat Cell Biol, 19, 504-517, 2017; Kang et al., Nature Communications, 9, 367, 2018). 3T3-F442A WT and KO preadipocytes were prepared as described in the Cell culture section above. […] Recordings were measured using Axopatch 200B amplifier paired to a Digidata 1550 digitizer using pClamp 10.4 software. […] The images were further analyzed for band intensities using ImageJ software. […]
structure (smiles),measurement,setting,value
"CCCCC1(C2CCCC2)Cc2cc(OCCCC(=O)O)c(Cl)c(Cl)c2C1=O (centres unmarked) [Smod1, 4-[(2-Butyl-6,7-dichloro-2-cyclopentyl-2,3-dihydro-1-oxo-1H-inden-5-yl)oxy]butanoic acid]",increase of SWELL1 protein expression,3T3-F442A adipocytes,1.5 fold
same,increase of SWELL1 protein expression,3T3-F442 preadipocytes,β
